# From PMC5218480 (PLoS ONE, 2017)
# Tested on: MV-4-11 cells
# Experiment: Gene expression microarray analysis (Affymetrix PrimeView) and GSEA
# Assay type: cell-based, human
# Parameters: RFU PODN (11730768_x_at) / Fold change /veh PODN (11730768_x_at) / RFU LINC00158 (11744669_a_at) / Fold change /veh LINC00158 (11744669_a_at) / RFU DUSP10 (11751237_a_at) / Fold change /veh DUSP10 (11751237_a_at) / RFU ID3 (11757404_x_at) / Fold change /veh ID3 (11757404_x_at) / RFU PLEKHG5 (11737974_s_at) / Fold change /veh PLEKHG5 (11737974_s_at) / RFU LRRC4B (11730491_at) / Fold change /veh LRRC4B (11730491_at) / RFU GIMAP4 (11747438_a_at) / Fold change /veh GIMAP4 (11747438_a_at) / RFU KRT8 (11758183_x_at) / Fold change /veh KRT8 (11758183_x_at) / RFU CNN1 (11734310_a_at) / Fold change /veh CNN1 (11734310_a_at) / RFU VPS37D (11726825_at) / Fold change /veh VPS37D (11726825_at) / RFU C10orf10 (11716522_x_at) / Fold change /veh C10orf10 (11716522_x_at) / RFU KIR2DL2 /// KIR2DL4 /// KIR2DL5A /// KIR2DL5B /// KIR2DS1 /// KIR2DS2 /// KIR2DS3 /// KIR2DS4 /// KIR3DL3 /// KIR3DL3 /// KIR3DS1 (11738374_at) / Fold change /veh KIR2DL2 /// KIR2DL4 /// KIR2DL5A /// KIR2DL5B /// KIR2DS1 /// KIR2DS2 /// KIR2DS3 /// KIR2DS4 /// KIR3DL3 /// KIR3DL3 /// KIR3DS1 (11738374_at) / RFU C1QL1 (11718748_at) / Fold change /veh C1QL1 (11718748_at) / RFU TMPRSS4 (11747572_a_at) / Fold change /veh TMPRSS4 (11747572_a_at) / RFU HAMP (11756126_x_at) / Fold change /veh HAMP (11756126_x_at) / RFU RNFT2 (11725882_a_at) / Fold change /veh RNFT2 (11725882_a_at) / RFU NR4A2 (11747474_a_at) / Fold change /veh NR4A2 (11747474_a_at) / RFU ABCC12 (11746883_a_at) / Fold change /veh ABCC12 (11746883_a_at) / RFU TMEM136 (11760407_x_at) / Fold change /veh TMEM136 (11760407_x_at) / RFU CLDN22 /// WWC2 (11732394_at) / Fold change /veh CLDN22 /// WWC2 (11732394_at) / RFU HLA-DPB1 (11760878_x_at) / Fold change /veh HLA-DPB1 (11760878_x_at) / RFU SPINT1 (11716480_a_at) / Fold change /veh SPINT1 (11716480_a_at) / RFU GAP43 (11754022_s_at) / Fold change /veh GAP43 (11754022_s_at) / RFU A4GNT (11735810_at) / Fold change /veh A4GNT (11735810_at) / RFU PRB3 (11715151_x_at) / Fold change /veh PRB3 (11715151_x_at) / RFU TUBB4B (11761932_at) / Fold change /veh TUBB4B (11761932_at) / RFU CAPN14 (11732068_a_at) / Fold change /veh CAPN14 (11732068_a_at) / RFU TMCC2 (11721928_a_at) / Fold change /veh TMCC2 (11721928_a_at) / RFU IRGQ (11745062_a_at) / Fold change /veh IRGQ (11745062_a_at) / RFU FAM174B (11720279_a_at) / Fold change /veh FAM174B (11720279_a_at) / RFU TMPRSS4 (11748680_a_at) / Fold change /veh TMPRSS4 (11748680_a_at) / RFU FAM212B (11763350_a_at) / Fold change /veh FAM212B (11763350_a_at) / RFU PLEKHG5 (11743358_a_at) / Fold change /veh PLEKHG5 (11743358_a_at) / RFU ZSCAN30 (11745921_a_at) / Fold change /veh ZSCAN30 (11745921_a_at) / RFU CMKLR1 (11741424_a_at) / Fold change /veh CMKLR1 (11741424_a_at) / RFU LOC101060620 /// MAPK8IP1 (11723275_at) / Fold change /veh LOC101060620 /// MAPK8IP1 (11723275_at) / RFU SPTSSB (11747773_x_at) / Fold change /veh SPTSSB (11747773_x_at) / RFU PRSS12 (11739890_at) / Fold change /veh PRSS12 (11739890_at) / RFU BIN1 (11741810_x_at) / Fold change /veh BIN1 (11741810_x_at) / RFU WNT11 (11732464_a_at) / Fold change /veh WNT11 (11732464_a_at) / RFU C10orf10 (11716521_a_at) / Fold change /veh C10orf10 (11716521_a_at) / RFU C5orf56 (11738089_at) / Fold change /veh C5orf56 (11738089_at) / RFU CYB561 (11721691_x_at) / Fold change /veh CYB561 (11721691_x_at) / RFU ANKRD19P (11752326_a_at) / Fold change /veh ANKRD19P (11752326_a_at) / RFU OR2T12 /// OR2T33 /// OR2T8 (11738714_s_at) / Fold change /veh OR2T12 /// OR2T33 /// OR2T8 (11738714_s_at) / RFU VCAN (11748164_a_at) / Fold change /veh VCAN (11748164_a_at) / RFU JSRP1 (11732532_at) / Fold change /veh JSRP1 (11732532_at) / RFU KRTAP10-11 (11738290_x_at) / Fold change /veh KRTAP10-11 (11738290_x_at) / RFU MYO3A (11730013_a_at) / Fold change /veh MYO3A (11730013_a_at) / RFU EBF3 (11725865_a_at) / Fold change /veh EBF3 (11725865_a_at) / RFU CAMK2N1 (11719241_x_at) / Fold change /veh CAMK2N1 (11719241_x_at) / RFU C5orf56 (11738088_a_at) / Fold change /veh C5orf56 (11738088_a_at) / RFU OLFML3 (11715873_a_at) / Fold change /veh OLFML3 (11715873_a_at) / RFU LOC100653217 /// NTM (11731650_a_at) / Fold change /veh LOC100653217 /// NTM (11731650_a_at) / RFU MAPK11 (11762145_a_at) / Fold change /veh MAPK11 (11762145_a_at) / RFU FIZ1 (11724087_x_at) / Fold change /veh FIZ1 (11724087_x_at) / RFU OASL (11726364_x_at) / Fold change /veh OASL (11726364_x_at) / RFU SOX15 (11748057_x_at) / Fold change /veh SOX15 (11748057_x_at) / RFU CD79A (11719716_a_at) / Fold change /veh CD79A (11719716_a_at) / RFU HIST1H1D (11736915_at) / Fold change /veh HIST1H1D (11736915_at) / RFU CASKIN2 (11723855_a_at) / Fold change /veh CASKIN2 (11723855_a_at) / RFU LOC730098 (11760151_x_at) / Fold change /veh LOC730098 (11760151_x_at) / RFU OR4N2 (11742367_at) / Fold change /veh OR4N2 (11742367_at) / RFU PRRT2 (11749266_a_at) / Fold change /veh PRRT2 (11749266_a_at) / RFU SNX32 (11753110_a_at) / Fold change /veh SNX32 (11753110_a_at) / RFU CDHR5 (11726645_a_at) / Fold change /veh CDHR5 (11726645_a_at) / RFU RCAN1 (11760418_a_at) / Fold change /veh RCAN1 (11760418_a_at) / RFU FAM167A (11723789_a_at) / Fold change /veh FAM167A (11723789_a_at) / RFU FAM26E (11764081_at) / Fold change /veh FAM26E (11764081_at) / RFU ISYNA1 (11749810_s_at) / Fold change /veh ISYNA1 (11749810_s_at) / RFU ACY1 (11761880_at) / Fold change /veh ACY1 (11761880_at) / RFU 11764098_at / Fold change /veh 11764098_at / RFU SAMD14 (11745864_x_at) / Fold change /veh SAMD14 (11745864_x_at) / RFU NPB (11741838_a_at) / Fold change /veh NPB (11741838_a_at) / RFU TMPRSS6 (11731388_a_at) / Fold change /veh TMPRSS6 (11731388_a_at) / RFU KRTAP10-2 (11738614_at) / Fold change /veh KRTAP10-2 (11738614_at) / RFU ARHGAP8 /// PRR5-ARHGAP8 (11727945_x_at) / Fold change /veh ARHGAP8 /// PRR5-ARHGAP8 (11727945_x_at) / RFU KRTAP5-7 /// NADSYN1 (11734609_at) / Fold change /veh KRTAP5-7 /// NADSYN1 (11734609_at) / RFU RASL12 (11751679_a_at) / Fold change /veh RASL12 (11751679_a_at) / RFU CDKN2B (11736163_a_at) / Fold change /veh CDKN2B (11736163_a_at) / RFU PRF1 (11729649_at) / Fold change /veh PRF1 (11729649_at) / RFU, ZNF638 /// ZNF638-IT1 / Fold change vs veh, ZNF638 /// ZNF638-IT1 / RFU, PANK3 / Fold change vs veh, PANK3 / RFU, SH3YL1 / Fold change vs veh, SH3YL1 / RFU, ZEB2 / Fold change vs veh, ZEB2 / RFU, NRIP1 / Fold change vs veh, NRIP1 / RFU, PTTG1IP / Fold change vs veh, PTTG1IP / RFU, CAPN2 / Fold change vs veh, CAPN2 / RFU, MED14 / Fold change vs veh, MED14 / RFU, SNORA58 / Fold change vs veh, SNORA58 / RFU, C1orf63 / Fold change vs veh, C1orf63 / RFU, LRRFIP1 / Fold change vs veh, LRRFIP1 / RFU, NDUFAF7 / Fold change vs veh, NDUFAF7 / RFU, SLC12A2 / Fold change vs veh, SLC12A2 / RFU, IBTK / Fold change vs veh, IBTK / RFU, ESF1 / Fold change vs veh, ESF1 / Fold change vs veh, TMEM50B / RFU, TAOK1 / Fold change vs veh, TAOK1 / RFU, ACBD3 / Fold change vs veh, ACBD3 / RFU, TMA16 / Fold change vs veh, TMA16 / RFU, RWDD3 / Fold change vs veh, RWDD3 / RFU, BCAT1 / Fold change vs veh, BCAT1 / RFU, EDEM3 / Fold change vs veh, EDEM3 / RFU, TMEM33 / Fold change vs veh, TMEM33 / RFU, WDR75 / Fold change vs veh, WDR75 / RFU, AHCTF1 / Fold change vs veh, AHCTF1 / RFU, TFRC / Fold change vs veh, TFRC / RFU, ZDHHC17 / Fold change vs veh, ZDHHC17 / RFU, NOM1 / Fold change vs veh, NOM1 / RFU, ARL8B / Fold change vs veh, ARL8B / RFU, ZBTB11 / Fold change vs veh, ZBTB11 / RFU, TAMM41 / Fold change vs veh, TAMM41 / RFU, KIAA1704 /// LOC100996395 / Fold change vs veh, KIAA1704 /// LOC100996395 / RFU, ING1 / Fold change vs veh, ING1 / RFU, TRMT61B / Fold change vs veh, TRMT61B / RFU, FUBP3 / Fold change vs veh, FUBP3 / RFU, TP53 / Fold change vs veh, TP53 / RFU, TNKS2 / Fold change vs veh, TNKS2 / RFU, ZFP14 / Fold change vs veh, ZFP14 / RFU, ACTR2 / Fold change vs veh, ACTR2 / RFU, PPP3R1 / Fold change vs veh, PPP3R1 / RFU, PIK3R1 / Fold change vs veh, PIK3R1 / RFU, HNRNPA1 / Fold change vs veh, HNRNPA1 / RFU, RNF170 / Fold change vs veh, RNF170 / RFU, ZNF28 / Fold change vs veh, ZNF28 / RFU, RNGTT / Fold change vs veh, RNGTT / RFU, OGT / Fold change vs veh, OGT / RFU, BRD1 / Fold change vs veh, BRD1 / RFU, MARS / Fold change vs veh, MARS / RFU, ZNF655 / Fold change vs veh, ZNF655 / RFU, FAHD1 / Fold change vs veh, FAHD1 / RFU, BDP1 / Fold change vs veh, BDP1 / RFU, LRRCC1 / Fold change vs veh, LRRCC1 / RFU, ARID1A / Fold change vs veh, ARID1A / RFU, ZNF146 / Fold change vs veh, ZNF146 / RFU, ZNF330 / Fold change vs veh, ZNF330 / RFU, GPN3 / Fold change vs veh, GPN3 / RFU, C9orf123 / Fold change vs veh, C9orf123 / RFU, N4BP2L2 / Fold change vs veh, N4BP2L2 / RFU, ARFIP1 / Fold change vs veh, ARFIP1 / RFU, FAM179B / Fold change vs veh, FAM179B / RFU, BCL10 / Fold change vs veh, BCL10 / RFU, UHRF1BP1L / Fold change vs veh, UHRF1BP1L / RFU, BET1 / Fold change vs veh, BET1 / RFU, CNOT2 / Fold change vs veh, CNOT2 / RFU, ZNF268 / Fold change vs veh, ZNF268 / Fold change vs veh, ZNF507 / RFU, DGCR2 / Fold change vs veh, DGCR2 / RFU, WDSUB1 / Fold change vs veh, WDSUB1 / Fold change vs veh, HSP90B1 /// MIR3652 / RFU, ADSS / Fold change vs veh, ADSS / RFU, GK / Fold change vs veh, GK / RFU, ZNF148 / Fold change vs veh, ZNF148 / RFU, TAF9 / Fold change vs veh, TAF9 / RFU, SLC1A5 / Fold change vs veh, SLC1A5 / RFU, SLMO2 / Fold change vs veh, SLMO2 / RFU, ABCC4 / Fold change vs veh, ABCC4 / RFU, LOC101060439 /// RAP1B / Fold change vs veh, LOC101060439 /// RAP1B / RFU, RFX7 / Fold change vs veh, RFX7 / RFU, GTPBP10 / Fold change vs veh, GTPBP10 / RFU, CNEP1R1 / Fold change vs veh, CNEP1R1 / RFU, BIVM-ERCC5 /// ERCC5 / Fold change vs veh, BIVM-ERCC5 /// ERCC5 / RFU, ILF3 / Fold change vs veh, ILF3 / RFU 11762660_at / Fold change /veh 11762660_at / RFU VCAN (11757783_s_at) / Fold change /veh VCAN (11757783_s_at) / RFU DDX43 (11728927_at) / Fold change /veh DDX43 (11728927_at) / RFU KRT8 (11758188_x_at) / Fold change /veh KRT8 (11758188_x_at) / RFU NKD1 (11759106_at) / Fold change /veh NKD1 (11759106_at) / RFU SRD5A1 (11742802_a_at) / Fold change /veh SRD5A1 (11742802_a_at) / RFU TPSAB1 /// TPSB2 (11721975_s_at) / Fold change /veh TPSAB1 /// TPSB2 (11721975_s_at) / RFU GSTM3 (11746129_a_at) / Fold change /veh GSTM3 (11746129_a_at) / RFU IL23R (11737362_x_at) / Fold change /veh IL23R (11737362_x_at) / RFU TMEM51 (11727254_a_at) / Fold change /veh TMEM51 (11727254_a_at) / RFU PIWIL2 (11732686_x_at) / Fold change /veh PIWIL2 (11732686_x_at) / RFU ORM1 (11744905_x_at) / Fold change /veh ORM1 (11744905_x_at) / RFU CCDC152 (11743942_at) / Fold change /veh CCDC152 (11743942_at) / RFU ECM1 (11717891_a_at) / Fold change /veh ECM1 (11717891_a_at) / RFU IL23R (11748794_a_at) / Fold change /veh IL23R (11748794_a_at) / RFU TNFAIP8L3 (11732012_x_at) / Fold change /veh TNFAIP8L3 (11732012_x_at) / RFU MBOAT4 (11741988_at) / Fold change /veh MBOAT4 (11741988_at) / RFU 11764193_at / Fold change /veh 11764193_at / RFU TMEM53 (11763286_at) / Fold change /veh TMEM53 (11763286_at) / RFU MAGEB2 (11727129_at) / Fold change /veh MAGEB2 (11727129_at) / RFU TMEM200A (11744735_a_at) / Fold change /veh TMEM200A (11744735_a_at) / RFU CCDC152 (11751479_a_at) / Fold change /veh CCDC152 (11751479_a_at) / RFU FAM211A (11726209_a_at) / Fold change /veh FAM211A (11726209_a_at) / RFU RGS16 (11746705_a_at) / Fold change /veh RGS16 (11746705_a_at) / RFU VCAN (11755009_s_at) / Fold change /veh VCAN (11755009_s_at) / RFU RHOB (11743442_s_at) / Fold change /veh RHOB (11743442_s_at) / RFU RGS16 (11720943_a_at) / Fold change /veh RGS16 (11720943_a_at) / RFU RGS16 (11720944_at) / Fold change /veh RGS16 (11720944_at) / RFU, VPS4B / Fold change vs veh, VPS4B / RFU, CREB1 / Fold change vs veh, CREB1 / RFU, DNAJC13 / Fold change vs veh, DNAJC13 / RFU, GNAQ / Fold change vs veh, GNAQ / RFU, CDK5R1 / Fold change vs veh, CDK5R1 / RFU, ZRANB3 / Fold change vs veh, ZRANB3 / RFU, CUL4A / Fold change vs veh, CUL4A / RFU, CCNY / Fold change vs veh, CCNY / RFU, UFL1 / Fold change vs veh, UFL1 / RFU, COG3 / Fold change vs veh, COG3 / RFU, DIAPH2 / Fold change vs veh, DIAPH2 / RFU, SKA2 / Fold change vs veh, SKA2 / RFU, AFF3 / Fold change vs veh, AFF3 / RFU, LMF1 / Fold change vs veh, LMF1 / RFU, IPO11 / Fold change vs veh, IPO11 / RFU, DFFB / Fold change vs veh, DFFB / RFU, FOXP1 / Fold change vs veh, FOXP1 / RFU, CARD8 / Fold change vs veh, CARD8 / RFU, STRN3 / Fold change vs veh, STRN3 / RFU, ADK / Fold change vs veh, ADK / RFU, RASSF2 / Fold change vs veh, RASSF2 / RFU, WIPF1 / Fold change vs veh, WIPF1 / RFU, LARP1B / Fold change vs veh, LARP1B / RFU, RASA1 / Fold change vs veh, RASA1 / RFU, RB1 / Fold change vs veh, RB1 / RFU, PPFIA1 / Fold change vs veh, PPFIA1 / RFU, MAT2A / Fold change vs veh, MAT2A / RFU, CCT5 / Fold change vs veh, CCT5 / RFU, WDR92 / Fold change vs veh, WDR92 / RFU, CUX1 / Fold change vs veh, CUX1 / RFU, TTC7A / Fold change vs veh, TTC7A / RFU, TMEM135 / Fold change vs veh, TMEM135 / RFU, DEPTOR / Fold change vs veh, DEPTOR / RFU, CPM / Fold change vs veh, CPM / RFU, DNAJB6 / Fold change vs veh, DNAJB6 / RFU, CACNA2D3 / Fold change vs veh, CACNA2D3 / RFU, DTX4 / Fold change vs veh, DTX4 / RFU, TFCP2 / Fold change vs veh, TFCP2 / RFU, GMCL1 /// GMCL1P1 / Fold change vs veh, GMCL1 /// GMCL1P1 / RFU, AEBP2 / Fold change vs veh, AEBP2 / RFU, SNHG1 /// SNORD22 /// SNORD25 /// SNORD26 /// SNORD27 /// SNORD28 /// SNORD29 /// SNORD31 / Fold change vs veh, SNHG1 /// SNORD22 /// SNORD25 /// SNORD26 /// SNORD27 /// SNORD28 /// SNORD29 /// SNORD31 / Fold change (Aza/veh), C12orf56 (ProbeSet 11735607_a_at) / Fold change (ACY-1035/veh), C12orf56 (ProbeSet 11735607_a_at) / Fold change (Aza/veh), FGFR1OP (ProbeSet 11751329_s_at) / Fold change (ACY-1035/veh), FGFR1OP (ProbeSet 11751329_s_at) / Fold change (Aza/veh), VPS36 (ProbeSet 11739960_a_at) / Fold change (ACY-1035/veh), VPS36 (ProbeSet 11739960_a_at) / RFU SYPL1 (11715823_x_at) / Fold change /veh SYPL1 (11715823_x_at) / RFU IGFBP7 (11715501_s_at) / Fold change /veh IGFBP7 (11715501_s_at) / RFU REEP3 (11722064_at) / Fold change /veh REEP3 (11722064_at) / RFU IGLL1 (11728026_x_at) / Fold change /veh IGLL1 (11728026_x_at): dose or concentration left out as unconfirmed
# Conditions: MV-4-11 cells, 48 hours
smiles,measurement,value
Nc1ncn([C@@H]2O[C@H](CO)[C@@H](O)[C@H]2O)c(=O)n1 [azacitidine],Fold change /veh CCDC152 (11751479_a_at),2.85
